Here are results for 25 molecules from patent publication US20250059207A1, “6,6-FUSED HETEROCYCLIC COMPOUNDS AS METTL3 INHIBITORS” (858 Therapeutics, Inc., priority 2021, published 2025).

Structures are written as SMILES. Where two headings read alike, the source gives them in different places. A value given as a limit tells only on which side of the number the result lay.

For the assay, the system named is MOLM-13 cells. The assay can be described thus: Viability assay in MOLM-13 cells (CellTiter-Glo 2.0). It is filed as cell-based, human. The following applies: read-out: MOLM-13 IC50 (cell viability). For orientation: ATP-based viability assays read luminescence as a measure of living cells.
Setting [1] is: MOLM-13 human AML cells, 72 hours, CellTiter-Glo 2.0.

In general, IC50 refers to the concentration that inhibits the measured activity by half.

Method: Effects of test compounds on the proliferation and viability of human AML cells was evaluated using the MOLM-13 cell line (AddexBio Technologies cat. no. C0003003). […] Test compounds or controls (Bortezomib or DMSO) diluted in 2% DMSO/media were added to each well for final concentrations of 0.2% DMSO and 0.1-1 μM Bortezomib. The cells were incubated for 72 hours at 37° C. and 5% CO2. At the end of the 72 hour incubation, plates were removed from the incubator, cooled to room temperature and equal volume of CellTiter-Glo 2.0 (Promega) added to each well. After mixing and incubating the plate at room temperature for 10 minutes the luminescence was read using a plate reader. […] Concentration-response-curves and IC50 values were generated using Collaborative Drug Discovery software.

With `CCOc1cncc2c(=O)n(Cc3cn4cc(C)ccc4n3)ccc12` [Compound 3, 5-ethoxy-2-((6-methylimidazo[1,2-a]pyridin-2-yl)methyl)-2,7-naphthyridin-1(2H)-one], under setting [1], the IC50 was above 10 µM.
As for `Cc1ccc2nc(Cn3ccc4c(N5CC(c6ccccc6)C5)cncc4c3=O)cn2c1` [Compound 7, 2-((6-methylimidazo[1,2-a]pyridin-2-yl)methyl)-5-(3-phenylazetidin-1-yl) 2,7-naphthyridin-1(2H)-one], the IC50 under setting [1] is above 10 µM.
Regarding `Cc1ccc2nc(Cn3ccc4c(N5CCC5)cncc4c3=O)cn2c1` [Compound 9, 5-(azetidin-1-yl)-2-((6-methylimidazo[1,2-a]pyridin-2-yl)methyl)-2,7-naphthyridin-1(2H)-one], where the note is “Homo sapiens, MOLM-13, 72 h”, the IC50 is above 10 µM.
With `Cc1ccc2nc(Cn3ccc4c(N5CCCCC5)cncc4c3=O)cn2c1` [Compound 10, 2-((6-methylimidazo[1,2-a]pyridin-2-yl)methyl)-5-(piperidin-1-yl)-2,7-naphthyridin-1(2H)-one], the IC50 under setting [1] is above 10 µM.
For the molecule `Cc1ccc2nc(Cn3ccc4c(C5CC5)cncc4c3=O)cn2c1` [Compound 11, 5-cyclopropyl-2-((6-methylimidazo[1,2-a]pyridin-2-yl)methyl)-2,7-naphthyridin-1(2H)-one], the IC50 under setting [1] was above 10 µM.
On the same count and under the same terms, next, `Cc1ccc2nc(Cn3ccc4c(-c5cc[nH]n5)cncc4c3=O)cn2c1` [Compound 15, 2-((6-methylimidazo[1,2-a]pyridin-2-yl)methyl)-5-(1H-pyrazol-3-yl)-2,7-naphthyridin-1(2H)-one]: above 10 µM; `Cc1ccc2nc(Cn3ccc4c(-c5cccnc5)cncc4c3=O)cn2c1` [Compound 17, 2-((6-methylimidazo[1,2-a]pyridin-2-yl)methyl)-5-(pyridin-3-yl)-2,7-naphthyridin-1(2H)-one]: above 10 µM.
As for `CNC(=O)c1ccc(-c2cncc3c(=O)n(Cc4cn5cc(C)ccc5n4)ccc23)cc1` [Compound 26, N-methyl-4-(7-((6-methylimidazo[1,2-a]pyridin-2-yl)methyl)-8-oxo-7,8-dihydro-2,7-naphthyridin-4-yl)benzamide], the IC50 under setting [1] was above 10 µM.
On to `Cc1ccc2nc(Cn3ccc4c(-c5ccccc5C#N)cncc4c3=O)cn2c1` [Compound 28, 2-(7-((6-methylimidazo[1,2-a]pyridin-2-yl)methyl)-8-oxo-7,8-dihydro-2,7-naphthyridin-4-yl)benzonitrile], for which the concentration for half-maximal inhibition (IC50) under setting [1] was above 10 µM.
Take `Cc1ccc2nc(Cn3ccc4c(-c5c(F)cccc5F)cncc4c3=O)cn2c1` [Compound 29, 5-(2,6-difluorophenyl)-2-((6-methylimidazo[1,2-a]pyridin-2-yl)methyl)-2,7-naphthyridin-1(2H)-one]: under setting [1], the IC50 is above 10 µM.
In the case of `Cc1ccc2nc(Cn3ccc4c(-c5c(C)cccc5F)cncc4c3=O)cn2c1` [Compound 30, 5-(2-fluoro-6-methylphenyl)-2-((6-methylimidazo[1,2-a]pyridin-2-yl)methyl)-2,7-naphthyridin-1(2H)-one], the IC50 under setting [1] is above 10 µM.
`CC(=O)Nc1ccc(-c2cncc3c(=O)n(Cc4cn5cc(C)ccc5n4)ccc23)cn1` [Compound 38, N-(5-(7-((6-methylimidazo[1,2-a]pyridin-2-yl)methyl)-8-oxo-7,8-dihydro-2,7-naphthyridin-4-yl)pyridin-2-yl)acetamide]: the IC50 under setting [1] was above 10 µM.
For `Cc1ccc2nc(Cn3ccc4c(C#CC5CC5)cncc4c3=O)cn2c1` [Compound 46, 5-(cyclopropylethynyl)-2-((6-methylimidazo[1,2-a]pyridin-2-yl)methyl)-2,7-naphthyridin-1(2H)-one], the IC50 under setting [1] was above 10 µM.
On to `Cc1ccc2nc(Cn3cc(C)c4ccncc4c3=O)cn2c1` [Compound 49, 4-methyl-2-((6-methylimidazo[1,2-a]pyridin-2-yl)methyl)-2,7-naphthyridin-1(2H)-one], for which, under setting [1], the IC50 is 1 to 10 µM.
In the case of `O=c1c2cnccc2ccn1Cc1cn2cc(CNCc3ccccc3)ccc2n1` [Compound 69, 2-((6-((benzylamino)methyl)imidazo[1,2-a]pyridin-2-yl)methyl)-2,7-naphthyridin-1(2H)-one], where the note is “Homo sapiens, MOLM-13, 72 h”, the IC50 is above 10 µM.
On to `O=c1c2cnccc2ccn1Cc1cn2cc(CNCC3CCCCC3)ccc2n1` [Compound 71, 2-((6-(((cyclohexylmethyl)amino)methyl)imidazo[1,2-a]pyridin-2-yl)methyl)-2,7-naphthyridin-1(2H)-one], for which the IC50 under setting [1] was above 10 µM.
For `O=c1c2cncc(-c3ccccc3)c2ccn1Cc1cn2cc(CNCc3ccccc3)ccc2n1` [Compound 72, 2-((6-((benzylamino)methyl)imidazo[1,2-a]pyridin-2-yl)methyl)-5-phenyl-2,7-naphthyridin-1(2H)-one], under setting [1], the IC50 was 1 to 10 µM.
On to `CC(C)(C)CNCc1ccc2nc(Cn3ccc4c(-c5ccccc5)cncc4c3=O)cn2c1` [Compound 73, 2-((6-((neopentylamino)methyl)imidazo[1,2-a]pyridin-2-yl)methyl)-5-phenyl-2,7-naphthyridin-1(2H)-one], for which the IC50 under setting [1] lay in the range of 1 to 10 µM.
The same measure, in the same setting: to `O=c1c2cncc(-c3ccccc3)c2ccn1Cc1cn2cc(CNCC3(O)CCC3)ccc2n1` [Compound 74, 2-((6-((((1-hydroxycyclobutyl)methyl)amino)methyl)imidazo[1,2-a]pyridin-2-yl)methyl)-5-phenyl-2,7-naphthyridin-1(2H)-one] belongs above 10 µM; to `O=c1c2cncc(-c3ccccc3)c2ccn1Cc1cn2cc(CNCC3(F)CCC3)ccc2n1` [Compound 75, 2-((6-((((1-fluorocyclobutyl)methyl)amino)methyl)imidazo[1,2-a]pyridin-2-yl)methyl)-5-phenyl-2,7-naphthyridin-1(2H)-one], above 10 µM; to `O=c1c2cncc(-c3ccccc3)c2ccn1Cc1cn2cc(CNCC3CCCC3)ccc2n1` [Compound 76, 2-((6-(((cyclopentylmethyl)amino)methyl)imidazo[1,2-a]pyridin-2-yl)methyl)-5-phenyl-2,7-naphthyridin-1(2H)-one], 1 to 10 µM.
As to `O=c1c2cncc(-c3ccccc3)c2ccn1Cc1cn2cc(CNCC3CCCCC3)ccc2n1` [Compound 77, 2-((6-(((cyclohexylmethyl)amino)methyl)imidazo[1,2-a]pyridin-2-yl)methyl)-5-phenyl-2,7-naphthyridin-1(2H)-one], the IC50 under setting [1] is 1 to 10 µM.
`O=c1c2cncc(-c3ccccc3)c2ccn1Cc1cn2cc(CNC3(c4ccccc4)CC3)ccc2n1` [Compound 78, 5-phenyl-2-((6-(((1-phenylcyclopropyl)amino)methyl)imidazo[1,2-a]pyridin-2-yl)methyl)-2,7-naphthyridin-1(2H)-one]: the IC50 (Homo sapiens, MOLM-13, 72 h) lay within 1 to 10 µM.
On to `O=c1c2cncc(-c3ccccc3)c2ccn1Cc1cn2cc(CNCC3CC(F)C3)ccc2n1` (stereo not shown) [Compound 79, 2-((6-((((3-fluorocyclobutyl)methyl)amino)methyl)imidazo[1,2-a]pyridin-2-yl)methyl)-5-phenyl-2,7-naphthyridin-1(2H)-one], for which the IC50 under setting [1] was 1 to 10 µM.
Same read-out and setting: next, `O=c1c2cncc(-c3ccccc3)c2ccn1Cc1cn2cc(CNC3(c4ccccc4)CCC3)ccc2n1` [Compound 80, 5-phenyl-2-((6-(((1-phenylcyclobutyl)amino)methyl)imidazo[1,2-a]pyridin-2-yl)methyl)-2,7-naphthyridin-1(2H)-one]: 1 to 10 µM.
